Drawing on patent US20130225548A1, “Pyridine Derivative and Medicinal Agent” (NIPPON SHINYAKU CO., LTD., priority 2010, published 2013), this text covers IC50 for 23 molecules.

This assay concerns the target T1, Syk tyrosine kinase (Homo sapiens, UniProt P43405).
T1 construct: purchased Carna Biosciences, Inc
The experiment in a line: Test for Syk tyrosine kinase inhibitory activity (ELISA). The format is biochemical. To be noted: Syk tyrosine kinase (Carna Biosciences), 25 μM ATP in substrate solution, 30° C. 1 hour, n=2; read-out: Evaluation (IC50, concentration inhibiting the tyrosine kinase activity at 50%). As for the experimental part: Test Example 1: Test for Syk Tyrosine Kinase Inhibitory Activity
1. Preparation of Test Substance
A test substance was prepared at 10 mM in dimethyl sulfoxide (DMSO), and further diluted with DMSO to concentrations of 1000, 300, 100, 30, 10, 3, 1, 0.3, 0.1, 0.03, and 0.01 μM. The resulting solutions were further diluted to 20-fold with an assay buffer, whereby test substance solutions were prepared. As a negative control, a solution obtained by diluting DMSO to 20-fold with an assay buffer was used. As the assay buffer, a buffer containing 15 mM Tris-HCl (pH 7.5), 0.01 (v/v) % Tween-20, and 1 mM dithiothreitol was used.
2. Measurement of Syk Tyrosine Kinase Inhibitory Activity
The activity was measured using the ELISA method. Each of the test substance solutions was added to a streptavidine-coated 96-well place (DELFIA Strip Plate 8×12 wells, PerkinElmer Co., Ltd,) at 10 μL per well (n=2), and a substrate solution (625 nM biotinylated peptide substrate, 25 μM ATP, 25 mM MgCl2, 15 mM Tris-HCl (pH 7.5), 0.01 (v/v) % Tween-20, 1 mM dithiothreitol) was added to the plate at 20 μL per well, and the resulting mixture was stirred. Finally, Syk tyrosine kinase (Carna Biosciences, Inc.) (previously diluted to 0.025 nM with the assay buffer) was added to the plate at 20 μL per well, and the resulting mixture was stirred. A reaction was allowed to proceed at 30° C. for 1 hour. After the plate was washed 4 times with a washing buffer (50 mM Tris-HCl (pH 7.5, 150 mM NaCl, 0.02 (v/v) % Tween-20), a blocking buffer (0.1% bovine serum albumin, 50 mM Tris-HCl (pH 7.5), 150 mM NaCl, 0.02 (v/v) % Tween-20) was added to the plate at 150 μL per well, and blocking was performed at 30° C. for 30 minutes. Then, the blocking buffer was removed, and a horseradish peroxidase-labeled anti-phosphorylated tyrosine antibody (BD Biosciences, Inc.) (previously diluted to 10000-fold with the blocking buffer) was added to the plate at 100 μL per well, and the plate was incubated at 30° C. for 30 minutes. After the plate was washed 4 times with the washing buffer, a 3,3′,5,5′-tetramethylbenzidine solution (Sigma-Aldrich Co., Ltd.) was added to the plate at 100 μL per well to develop the color for 10 minutes. The reaction was stopped by adding 0.1 M sulfuric acid at 100 μL per well. The absorbance at 450 nm was measured using a microplate reader (Multiskan F C, Thermo Fisher Scientific K,K.).
3. Analysis of Measurement Results
A non-linear regression analysis was performed for the measured absorbance using the SAS system (SAS institute. Inc.), and a concentration of each of the test substances: inhibiting the tyrosine kinase activity at 50% (IC50 ) was calculated. A case where IC50 is […] was evaluated as ***, a case where IC50 is 5 nM or more and less than 50 nM was evaluated as **, and a case where IC50 is 50 nM or more and less than 500 nM was evaluated as *, which are shown in the column of evaluation item.

The structures appear in SMILES notation. Structures can show the parent of a compound that is named as a salt.

For `COCCNc1ccc(-c2cc(C3CC3)cc(Nc3cc(C#N)ccn3)n2)cn1` [Example 21, 2-({4-cyclopropyl-6′-[(2-methoxyethyl)amino]-2,3′-bipyridin-6-yl}amino)pyridine-4-carbonitrile hydrochloride], the IC50 was in the range of 0.005 to 0.05 µM.
On to `N#Cc1ccnc(Nc2cc(C3CC3)cc(-c3ccc(N4CC[C@@H](O)C4)nc3)n2)c1` [Example 22, 2-({4-cyclopropyl-6′-[(3R)-3-hydroxypyrrolidin-1-yl]-2,3′-bipyridin-6-yl}amino)pyridine-4-carbonitrile hydrochloride], for which the IC50 was in the range of 0.005 to 0.05 µM.
Consider `N#Cc1ccnc(Nc2cc(C3CC3)cc(-c3ccc(NCCCO)nc3)n2)c1` [Example 23, 2-({4-cyclopropyl-6′-[(3-hydroxypropyl)amino]-2,3′-bypyridin-6-yl}amino)pyridine-4-carbonitrile hydrochloride], for which the IC50 is 0.005 to 0.05 µM.
In the case of `CC(C)(CO)CNc1ccc(-c2cc(C3CC3)cc(Nc3cc(C#N)ccn3)n2)cn1` [Example 24, 2-({4-cyclopropyl-6′-[(3-hydroxy-2,2-dimethylpropyl)amino]-2,3′-bipyridin-6-yl}amino)pyridine-4-carbonitrile hydrochloride] it was 0.005 to 0.05 µM; in that of `N#Cc1ccnc(Nc2cc(C3CC3)cc(-c3ccc(N4CC[C@H](O)C4)nc3)n2)c1` [Example 25, 2-({4-cyclopropyl-6′-[(3S)-3-hydroxypyrrolidin-1-yl]-2,3′-bipyridin-6-yl}amino)pyridine-4-carbonitrile hydrochloride], 0.005 to 0.05 µM; in that of `N#Cc1ccnc(Nc2cc(C3CC3)cc(-c3ccc(N4CCC(CO)CC4)nc3)n2)c1` [Example 26, 2-({4-cyclopropyl-6′-[4-(hydroxymethyl)piperidin-1yl]-2,3′-bipyridin-6-yl}amino)pyridine-4-carbonitrile hydrochloride], 0.005 to 0.05 µM.
In the case of `N#Cc1ccnc(Nc2cc(C3CC3)cc(-c3ccc(N4CCSCC4)nc3)n2)c1` [Example 27, 2-{[4-cyclopropyl-6′-(thiomorphoiln-4-yl)-2,3′-bipyridin-6-yl]amino}pyridine-4-carbonitrile hydrochloride] it was 0.005 to 0.05 µM; in that of `N#Cc1ccnc(Nc2cc(C3CC3)cc(-c3ccc(N4CCC(N)CC4)nc3)n2)c1` [Example 28, 2-{[6′-(4-aminopiperidin-1-yl)-4-cyclopropyl-2,3′-bipyridin-6-yl]amino}pyridine-4-carbonitrile dihydrochloride], 0.005 to 0.05 µM; in that of `CNC1CCN(c2ccc(-c3cc(C4CC4)cc(Nc4cc(C#N)ccn4)n3)cn2)CC1` [Example 29, 2-({4-cyclopropyl-6′-[4-(methylamino)piperidin-1-yl]-2,3′-bipyridin-6-yl}amino)pyridine-4-carbonitrile dihydrochloride], 0.005 to 0.05 µM.
For the molecule `N#Cc1ccnc(Nc2cc(C3CC3)cc(-c3ccc(N4CCC(F)CC4)nc3)n2)c1` [Example 30, 2-{[4-cyclopropyl-6′-(4-fluoropiperidin-1-yl)-2,3′-bipyridin-6-yl]amino}pyridine-4-carbonitrile hydrochloride], the IC50 was 0.05 to 0.5 µM.
For `N#Cc1ccnc(Nc2cc(C3CC3)cc(-c3ccc(N(CCO)CCO)nc3)n2)c1` [Example 31, 2-({6′-[bis(2-hydroxyethyl)amino]-4-cyclopropyl-2,3′-bipyridin-6-yl}amino)pyridine-4-carbonitrile hydrochloride], the IC50 was in the range of 0.005 to 0.05 µM.
`N#Cc1ccnc(Nc2cc(C3CC3)cc(-c3ccc(N4CCCNCC4)nc3)n2)c1` [Example 32, 2-{[4-cyclopropyl-6′-(1,4-diazepan-1-yl)-2,3′-bipyridin-6-yl]amino}pyridine-4-carbonitrile dihydrochloride]: the IC50 is 0.005 to 0.05 µM.
Turning to `N#Cc1ccnc(Nc2cc(C3CC3)cc(-c3ccc(N4CCC[C@H](O)C4)nc3)n2)c1` [Example 33, 2-({4-cyclopropyl-6′-[(3S)-3-hydroxypiperidin-1-yl]-2,3′-bipyridin-6-yl}amino)pyridine-4-carbonitrile hydrochloride], the IC50 fell in the range of 0.005 to 0.05 µM.
Under `N#Cc1ccnc(Nc2cc(C3CC3)cc(-c3ccc(N4CCC[C@@H](O)C4)nc3)n2)c1` [Example 34, 2-({4-cyclopropyl-6′-[(3R)-3-hydroxypiperidin-1-yl]-2,3′-bipyridin-6-yl}amino)pyridine-4-carbonitrile hydrochloride] stands 0.005 to 0.05 µM.
On to `N#Cc1ccnc(Nc2cc(C3CC3)cc(-c3cnc(N4CCC(O)CC4)nc3)n2)c1` [Example 35, 2-({4-cyclopropyl-6-[2-(4-hydroxypiperidin-1-yl)pyrimidin-5-yl]pyridin-2-yl}amino)pyridine-4-carbonitrile hydrochloride], for which the IC50 lay in the range of 0.05 to 0.5 µM.
`Cn1ncc2cc(-c3cc(C4CC4)cc(Nc4cc(C#N)ccn4)n3)ccc21` [Example 36, 2-{[4-cyclopropyl-6-(1-methyl-1H-indazol-5-yl)pyridin-2-yl]amino}pyridine-4-carbonitrile hydrochloride]: the IC50 is 0.005 to 0.05 µM.
Under `Cn1ncc2ccc(-c3cc(C4CC4)cc(Nc4cc(C#N)ccn4)n3)cc21` [Example 37, 2{[4-cyclopropyl-6-(1-methyl-1H-indazol-6-yl)pyridin-2-yl]amino}pyridine-4-carbonitrile hydrochloride] stands 0.005 to 0.05 µM.
Under `CN1CCCN(c2ccc(-c3cc(C4CC4)cc(Nc4cc(C#N)ccn4)n3)cn2)CC1` [Example 38, 2-{[4-cyclopropyl-6′-(4-methyl-1,4-diazepan-1-yl)-2,3′-bipyridin-6-yl]amino}pyridine-4-carbonitrile dihydrochloride] stands 0.005 to 0.05 µM; under `CNC(=O)C1CCCN1c1ccc(-c2cc(C3CC3)cc(Nc3cc(C#N)ccn3)n2)cn1` (centres unmarked) [Example 39, 1-{6-[(4-cyanopyridin-2-yl)amino]-4-cyclopropyl-2,3′-bipyridin-6′-yl}-N-methylpyrrolidine-2-carboxamide hydrochloride], 0.05 to 0.5 µM; under `N#Cc1ccnc(Nc2cc(C3CC3)cc(-c3ccc(N4CCC[C@H]4C(N)=O)nc3)n2)c1` [Example 40, (S)-1-{6-[(4-cyanopyridin-2-yl)amino]-4-cyclopropyl-2,3′-bipyridin-6′-yl}pyrrolidine-2-carboxamide hydrochloride], 0.05 to 0.5 µM.
Under `N#Cc1ccnc(Nc2cc(C3CC3)cc(-c3ccc(N4CCC(O)CC4)cc3)n2)c1` [Example 41, 2-({4-cyclopropyl-6-[4-(4-hydroxypiperidin-1-yl)phenyl]pyridin-2-yl}amino)pyridine-4-carbonitrile hydrochloride] stands 0.05 to 0.5 µM.
For `CC(=O)N[C@H]1CCN(c2ccc(-c3cc(C4CC4)cc(Nc4cc(C#N)ccn4)n3)cn2)C1` [Example 42, N-[(3S)-1-{6-[(4-cyanopyridin-2-yl)amino]-4-cyclopropyl-2,3′-bipyridin-6′-yl}pyrrolidin-3-yl]acetamide hydrochloride], the IC50 was 0.05 to 0.5 µM.
As for `CCNC(=O)N1CCN(c2ccc(-c3cc(C4CC4)cc(Nc4cc(C#N)ccn4)n3)cn2)CC1` [Example 43, 4-{6-[(4-cyanopyridin-2-yl)amino]-4-cyclopropyl-2,3′-bipyridin-6′-yl}-N-ethylpiperazine-1-carboxamide hydrochloride], the IC50 was 0.05 to 0.5 µM.
